Test systems include COLO 205 colon; K-562 leukemia; OVCAR-3 ovarian; OVCAR-5 ovarian; RPMI-8226 leukemia; SF-295 CNS; SK-MEL-5 melanoma; SNB-75 CNS; SR leukemia.
Common to all, as to assay: NCI anticancer screen, dose series, 48 h

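A five-concentration, 48-hour dose response in 96-well plates underlies each endpoint, interpolated linearly between surrounding concentrations. The concentration for full growth arrest is given as TGI.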 A value given as a limit tells only on which side of the number the result lay.

As for `N#CCCN(CCC#N)c1ccc(C(N=Nc2ccccc2)=Nc2ccc(F)cc2)cc1`, the TGI in the assay with COLO 205 colon, in the assay with K-562 leukemia, in the assay with OVCAR-3 ovarian, in the assay with OVCAR-5 ovarian, in the assay on RPMI-8226 leukemia and with SF-295 CNS was > 100 µM in each case. Also, the TGI with SK-MEL-5 melanoma, with SNB-75 CNS and in the assay on SR leukemia was > 100 µM in each case.
As to `COc1ccc(C(=O)/C=C/SC(=NC#N)SC)cc1`, the TGI with COLO 205 colon is 38.8 µM; in the assay with K-562 leukemia it was > 100 µM; in the assay on OVCAR-3 ovarian, 37.2 µM; in the assay with OVCAR-5 ovarian, 47.1 µM; in the assay with RPMI-8226 leukemia, > 100 µM; in the assay on SF-295 CNS it was 76 µM. The TGI in the assay on SK-MEL-5 melanoma came to 39 µM; in the assay with SNB-75 CNS, 89.2 µM; in the assay with SR leukemia it was 19.6 µM.
Consider `CC[C@H](NC(=O)OC(C)(C)C)C(=O)NCP(=O)(OCc1ccc([N+](=O)[O-])cc1)OCc1ccc([N+](=O)[O-])cc1`, for which the TGI in the assay on COLO 205 colon is 30 µM; in the assay with OVCAR-3 ovarian it was > 100 µM; with OVCAR-5 ovarian it was > 100 µM; with RPMI-8226 leukemia, > 100 µM; with SF-295 CNS, 55.7 µM; with SK-MEL-5 melanoma it was 26.4 µM. In addition, the TGI in the assay on SNB-75 CNS and in the assay on SR leukemia was > 100 µM each time.
For `CC(C)=CCc1c(O)cc2oc(-c3ccc(O)cc3O)cc(=O)c2c1O`, the TGI in the assay on COLO 205 colon is 62.6 µM; in the assay on K-562 leukemia, > 59.2 µM; in the assay on OVCAR-3 ovarian, 51.5 µM; in the assay on OVCAR-5 ovarian, 81.3 µM; with RPMI-8226 leukemia, 41.4 µM; with SF-295 CNS it was > 100 µM. The TGI is 38.7 µM in the assay with SK-MEL-5 melanoma, 69.1 µM with SNB-75 CNS and > 65.6 µM in the assay with SR leukemia.
Take `CO[P@@]1(=O)O[C@@H](c2ccccc2)[C@H](O)[C@]1(O)c1ccccc1`: the TGI with COLO 205 colon, with K-562 leukemia, in the assay with OVCAR-3 ovarian, in the assay with RPMI-8226 leukemia, with SF-295 CNS and in the assay on SK-MEL-5 melanoma was > 100 µM throughout. Moreover, the TGI in the assay on SNB-75 CNS and in the assay with SR leukemia was > 100 µM throughout.
Consider `OC(CC(O)(C(F)(F)Cl)C(F)(F)Cl)c1ccccc1` (centres undefined), for which the TGI in the assay with COLO 205 colon, with K-562 leukemia, with OVCAR-3 ovarian, with OVCAR-5 ovarian, in the assay on RPMI-8226 leukemia and in the assay with SF-295 CNS was > 10 µM throughout. For the same compound, the TGI is 0.0502 µM with SK-MEL-5 melanoma, > 10 µM with SNB-75 CNS and > 10 µM in the assay on SR leukemia.
In the case of `CCN(CC)C(=S)N/N=C(/c1ccccc1)c1ccccn1`, the TGI in the assay on COLO 205 colon was 0.0942 µM; in the assay on K-562 leukemia, > 100 µM; with OVCAR-3 ovarian, 32.5 µM; with OVCAR-5 ovarian, 22.9 µM; in the assay with RPMI-8226 leukemia, 45.1 µM; in the assay on SF-295 CNS, 25.4 µM. Further, the values for the TGI in the assay on SK-MEL-5 melanoma, in the assay with SNB-75 CNS and with SR leukemia were 4.83 µM, 7.59 µM and 0.953 µM, respectively.
In the case of `Cc1c(C(=O)NNc2ccccc2)n2c(=S)[nH]nc2c2ccccc12`, the TGI with COLO 205 colon, in the assay on K-562 leukemia, with OVCAR-3 ovarian, with OVCAR-5 ovarian, in the assay on RPMI-8226 leukemia and with SF-295 CNS was > 100 µM in each case. The TGI in the assay with SK-MEL-5 melanoma, with SNB-75 CNS and in the assay with SR leukemia was > 100 µM each time.
In the case of `CC(C)=CCC[C@@H](C)C1=C(Nc2ccccc2F)C(O)=C(C)C(=O)C1=O`, the TGI with COLO 205 colon is 12.4 µM; in the assay with K-562 leukemia, > 100 µM; in the assay with OVCAR-3 ovarian it was > 100 µM; in the assay with OVCAR-5 ovarian, > 100 µM; in the assay on RPMI-8226 leukemia, > 100 µM; in the assay on SF-295 CNS, > 31.5 µM. Also, the TGI was 14.8 µM in the assay on SK-MEL-5 melanoma, > 100 µM in the assay on SNB-75 CNS and > 100 µM with SR leukemia.
Turning to `O=C([C@H](O)[C@@H](O)c1cccc(Cl)c1)C12CC3CC(CC(C3)C1)C2`, the TGI was 4.23 µM with COLO 205 colon; > 100 µM in the assay with K-562 leukemia; 4.37 µM in the assay with OVCAR-3 ovarian; 8.79 µM in the assay with OVCAR-5 ovarian; > 22.7 µM with RPMI-8226 leukemia; 11.4 µM in the assay with SF-295 CNS. The results for the TGI in the assay with SK-MEL-5 melanoma, with SNB-75 CNS and with SR leukemia were 14.8 µM, 3.7 µM and > 100 µM, respectively.
Regarding `CSc1ccc(/C=C2\N=C(c3ccccc3)N(c3nc4cc(Cl)c(F)cc4s3)C2=O)cc1`, the TGI was > 100 µM with COLO 205 colon; > 100 µM in the assay with K-562 leukemia; 60.1 µM in the assay on OVCAR-3 ovarian; > 100 µM with OVCAR-5 ovarian; > 100 µM in the assay with RPMI-8226 leukemia; > 100 µM in the assay on SF-295 CNS. Also, the TGI in the assay on SK-MEL-5 melanoma is > 100 µM; with SNB-75 CNS, 66.6 µM; with SR leukemia, > 100 µM.
Turning to `C[C@H]1[C@H](C)CC[C@]2(C(=O)OC3OC(CO)C(O)C(O)C3O)CC[C@]3(C)C(=CC[C@@H]4[C@@]5(C)C[C@@H](O)[C@@H]6OC(=O)c7cc(O)c(O)c(O)c7-c7c(cc(O)c(O)c7O)C(=O)OC[C@@]6(CO)[C@@H]5CC[C@]43C)[C@H]12` (some centres undefined), the TGI is > 100 µM with COLO 205 colon; 78.5 µM in the assay on K-562 leukemia; > 91.4 µM with OVCAR-3 ovarian; > 100 µM in the assay with OVCAR-5 ovarian; > 100 µM with RPMI-8226 leukemia; > 100 µM with SF-295 CNS. Besides, the TGI with SK-MEL-5 melanoma, with SNB-75 CNS and in the assay with SR leukemia was > 100 µM in each case.
`CS(=O)(=O)Nc1ccc2ccccc2c1`: the TGI in the assay with COLO 205 colon, in the assay on K-562 leukemia, with OVCAR-3 ovarian, in the assay with OVCAR-5 ovarian, in the assay with RPMI-8226 leukemia and in the assay with SF-295 CNS was > 100 µM throughout. Also, the TGI with SK-MEL-5 melanoma, in the assay with SNB-75 CNS and in the assay on SR leukemia was > 100 µM throughout.
In the case of `CCOC(=O)c1csc(NC(=O)CCN2CCN(C)CC2)n1`, the TGI in the assay with COLO 205 colon, in the assay on K-562 leukemia, in the assay on OVCAR-3 ovarian, with OVCAR-5 ovarian, in the assay on RPMI-8226 leukemia and in the assay with SF-295 CNS was > 100 µM each time. The TGI with SK-MEL-5 melanoma, in the assay on SNB-75 CNS and in the assay on SR leukemia was > 100 µM in each case.

Source of the values: PubChem BioAssay (NCI).
